Key:
[1] = biological target: T1, BACE1 (Homo sapiens (Human), UniProt P56817); assay: In vitro enzymatic BACE1 FRET assay; format: biochemical; conditions: read-out: BACE1 Enzyme IC50
Target sequence in this assay (P56817 46-501): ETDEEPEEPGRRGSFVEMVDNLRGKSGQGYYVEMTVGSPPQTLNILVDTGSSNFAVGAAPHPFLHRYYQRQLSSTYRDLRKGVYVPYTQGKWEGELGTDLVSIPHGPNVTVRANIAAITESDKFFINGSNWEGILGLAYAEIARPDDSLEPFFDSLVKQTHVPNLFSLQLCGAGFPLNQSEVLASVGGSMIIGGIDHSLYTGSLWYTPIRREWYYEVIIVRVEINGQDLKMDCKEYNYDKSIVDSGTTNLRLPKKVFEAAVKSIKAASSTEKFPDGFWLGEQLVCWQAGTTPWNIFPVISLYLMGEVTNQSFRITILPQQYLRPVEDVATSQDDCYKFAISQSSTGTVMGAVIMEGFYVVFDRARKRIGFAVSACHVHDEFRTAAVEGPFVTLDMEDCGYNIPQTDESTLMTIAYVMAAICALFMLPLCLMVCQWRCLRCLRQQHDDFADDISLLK

[2] = biological target: human recombinant BACE2 (Homo sapiens (Human), UniProt Q9Y5Z0); assay: In vitro enzymatic BACE2 FRET assay; format: biochemical; conditions: read-out: BACE2 Enzyme IC50
[3] = biological target: Cathepsin D (CatD) (Homo sapiens (Human), UniProt P07339); assay: In vitro enzymatic Cathepsin D (CatD) FRET assay; format: biochemical; conditions: read-out: Cat D Enzyme IC50
Chain of Cathepsin D (CatD) (P07339 65-412, species assumed): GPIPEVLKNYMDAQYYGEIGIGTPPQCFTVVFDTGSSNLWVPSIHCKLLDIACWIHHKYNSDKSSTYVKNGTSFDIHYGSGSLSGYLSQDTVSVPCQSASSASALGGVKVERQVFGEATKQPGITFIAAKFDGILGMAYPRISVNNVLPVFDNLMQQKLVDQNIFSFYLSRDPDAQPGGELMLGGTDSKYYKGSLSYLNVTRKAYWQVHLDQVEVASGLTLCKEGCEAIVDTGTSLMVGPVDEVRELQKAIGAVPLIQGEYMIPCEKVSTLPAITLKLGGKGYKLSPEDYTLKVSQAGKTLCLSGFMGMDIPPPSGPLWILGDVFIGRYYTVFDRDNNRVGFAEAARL

[4] = biological target: T1, BACE1; assay: In vitro BACE1 cell-based assay (Aβ40 in conditioned medium of cells stably expressing APP, HTRF); conditions: Aβ40 in conditioned media after 24 h incubation
Target sequence in this assay (P56817 46-501, species assumed): as the sequence (P56817 46-501) above

Chain of human recombinant BACE2 (Q9Y5Z0 63-518): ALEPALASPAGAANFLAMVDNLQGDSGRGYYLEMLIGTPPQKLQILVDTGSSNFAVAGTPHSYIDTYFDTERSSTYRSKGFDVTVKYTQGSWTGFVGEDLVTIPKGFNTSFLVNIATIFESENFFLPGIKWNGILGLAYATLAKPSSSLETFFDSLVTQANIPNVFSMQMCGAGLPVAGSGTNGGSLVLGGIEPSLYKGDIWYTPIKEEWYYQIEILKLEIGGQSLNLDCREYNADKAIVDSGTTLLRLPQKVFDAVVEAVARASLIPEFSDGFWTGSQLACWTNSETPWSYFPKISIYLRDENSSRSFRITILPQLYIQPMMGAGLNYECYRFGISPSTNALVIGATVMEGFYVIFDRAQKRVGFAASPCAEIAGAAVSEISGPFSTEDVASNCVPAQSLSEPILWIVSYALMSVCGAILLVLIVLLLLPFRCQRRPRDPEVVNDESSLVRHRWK

CN1C(N)=N[C@](C)(c2cc(/C=C(\F)c3cc(F)c(Cl)cn3)ccc2F)CS1(=O)=O [Example 232, (R,Z)-3-amino-5-(5-(2-(5-chloro-4-fluoropyridin-2-yl)-2-fluorovinyl)-2-fluorophenyl)-2,5-dimethyl-5,6-dihydro-2H-1,2,4-thiadiazine 1,1-dioxide]
IC50 [1]: 7 nM | IC50 [2]: 2 nM | IC50 [3]: 68800 nM | IC50 [4]: 29 nM

C[C@]1(c2cc(/C=C(\F)c3cnc(OCCF)cn3)ccc2F)N=C(N)[C@@]2(CF)CC[C@@H]1S2(=O)=O [Example 133, (1R,4R,5S)-2-amino-4-(2-fluoro-5-((Z)-2-fluoro-2-(5-(2-fluoroethoxy)pyrazin-2-yl)vinyl)phenyl)-1-(fluoromethyl)-4-methyl-8-thia-3-azabicyclo[3.2.1]oct-2-ene 8,8-dioxide]
IC50 [1]: 131 nM | IC50 [2]: 151 nM | IC50 [3]: 428000 nM | IC50 [4]: 339 nM

Cc1cc(COc2cnc(/C(F)=C/c3ccc(F)c([C@@]4(C)N=C(N)N(C)S(=O)(=O)C45CC5)c3)cn2)no1 [Example 162, (8R)-8-(2-fluoro-5-((Z)-2-fluoro-2-(5-((5-methyl-3-isoxazolyl)methoxy)-2-pyrazinyl)ethenyl)phenyl)-5,8-dimethyl-4-thia-5,7-diazaspiro[2.5]oct-6-en-6-amine 4,4-dioxide]
IC50 [1]: 65 nM | IC50 [2]: 732 nM | IC50 [3]: 15700 nM | IC50 [4]: 168 nM

C[C@]1(c2cc(/C=C(\F)c3cnc(OCC(F)(F)F)cn3)ccc2F)N=C(N)[C@@]2(CF)CC[C@@H]1S2(=O)=O [Example 109, (1R,4R,5S)-2-amino-4-(2-fluoro-5-((Z)-2-fluoro-2-(5-(2,2,2-trifluoroethoxy)pyrazin-2-yl)vinyl)phenyl)-1-(fluoromethyl)-4-methyl-8-thia-3-azabicyclo[3.2.1]oct-2-ene 8,8-dioxide]
IC50 [1]: 28 nM | IC50 [2]: 167 nM | IC50 [3]: 135000 nM | IC50 [4]: 227 nM

C[C@@H](CO)Oc1cnc(/C(F)=C/c2ccc(F)c([C@]3(C)CS(=O)(=O)C(C)(C)C(N)=N3)c2)cn1 [Example 218, (R)-5-amino-3-(2-fluoro-5-((Z)-2-fluoro-2-(5-(((S)-1-hydroxypropan-2-yl)oxy)pyrazin-2-yl)vinyl)phenyl)-3,6,6-trimethyl-3,6-dihydro-2H-1,4-thiazine 1,1-dioxide]
IC50 [1]: 180 nM | IC50 [2]: 285 nM | IC50 [3]: 195000 nM | IC50 [4]: 529 nM

CCC#C[C@@H](C)Oc1cnc(/C(F)=C/c2ccc(F)c([C@]3(C)CS(=O)(=O)C(C)(C)C(N)=N3)c2)cn1 (single isomer, unassigned) [Example 216]
IC50 [1]: 628 nM | IC50 [2]: 364 nM | IC50 [3]: 29900 nM | IC50 [4]: 5360 nM

CC1(C)C(N)=N[C@](C)(c2cc(/C=C(\F)c3cnc(OCCn4cc(Br)cn4)cn3)ccc2F)CS1(=O)=O [Example 156, (R,Z)-5-amino-3-(5-(2-(5-(2-(4-bromo-1H-pyrazol-1-yl)ethoxy)pyrazin-2-yl)-2-fluorovinyl)-2-fluorophenyl)-3,6,6-trimethyl-3,6-dihydro-2H-1,4-thiazine 1,1-dioxide]
IC50 [1]: 96 nM | IC50 [2]: 671 nM | IC50 [3]: 90500 nM | IC50 [4]: 1320 nM

CC1(C)C(N)=N[C@](C)(c2cc(/C=C(\F)c3cnc(OCCn4ccnc4)cn3)ccc2F)CS1(=O)=O [Example 155, (R,Z)-3-(5-(2-(5-(2-(1H-imidazol-1-yl)ethoxy)pyrazin-2-yl)-2-fluorovinyl)-2-fluorophenyl)-5-amino-3,6,6-trimethyl-3,6-dihydro-2H-1,4-thiazine 1,1-dioxide]
IC50 [1]: 5140 nM | IC50 [2]: 2390 nM | IC50 [3]: 440000 nM | IC50 [4]: 985 nM

CC1(C)C(N)=N[C@](C)(c2cc(/C=C(\F)c3cnc(OCc4ccncc4)cn3)ccc2F)CS1(=O)=O [Example 210, (R,Z)-5-amino-3-(2-fluoro-5-(2-fluoro-2-(5-(pyridin-4-ylmethoxy)pyrazin-2-yl)vinyl)phenyl)-3,6,6-trimethyl-3,6-dihydro-2H-1,4-thiazine 1,1-dioxide]
IC50 [1]: 1720 nM | IC50 [2]: 476 nM | IC50 [3]: 467000 nM | IC50 [4]: 2230 nM
